According to patent US6603023B2 (priority 1996, dated 2003):
Read-outs that look alike come from different tables or passages of the source.

Tests used:
B16 Melanoma = type: in vivo, B6D2F1 mice
Procedure: Body weight was determined at 0, 2, 4, 6, 8, 10 and 12 days. […] Injections were started on day 1. […] Body weight was determined at 0, 2, 4, 6, 8, 10 and 12 days. […] Injections were started on day 1.

[1] = system: Human CCRF-CEM/VBL Xenograft; experiment: CCRF-CEM/VBL xenograft in scid mice; type: in vivo, CB-17 scid mice
Human CCRF-CEM Xenograft = experiment: CCRF-CEM xenograft in scid mice; type: in vivo, CB-17 scid mice; settings: for mice died of drug toxicity: 7 mice
[2] = system: CCRF-CEM human T-cell acute lymphoblastic leukemia cell line; experiment: XTT cytotoxicity (cell growth inhibition), CCRF-CEM
Outline: (§1)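 Suspension leukemic cells (CCRF-CEM, P388 and drug-resistant sublines kept under the selecting agent) were seeded at 5×10^4 cells/mL in RPMI-1640 with 10% FBS at 37 °C. After 72 h drug exposure in duplicate, PMS-XTT was added for 4 h. Absorbance was read at 450 and 630 nm.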

murine leukemic P388/0 = experiment: XTT cytotoxicity, P388/0; type: cell-based; settings: Table 1C; XTT, 72 h; read-out: IC50
Outline: as §1

[3] = system: human neuroblastoma SK-N-As; experiment: SRB cytotoxicity, SK-N-As; type: cell-based; settings: Table 1C; SRB, 72 h; read-out: IC50
Outline: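 Monolayer cultures grown in RPMI 1640-10% FBS at 37 °C, 5% CO2, with resistant sublines kept under their selecting agent. Cytotoxicity determined by SRB protein staining (TCA fixation, absorbance 570 nm) in duplicate at six to seven drug concentrations. ED50 obtained by median-effect plot analysis.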

[4] = dose 0.7 i.p. QD d7-10,14,15, day 7
[5] = dose 0.7 i.p. QD d7-10,14,15, day 12
[6] = dose 0.7 i.p. QD d7-10,14,15, day 17
[7] = dose 0.7 i.p. QD d7-10,14,15, day 22
[8] = dose 1.0 i.p. QD d7-10,14,15, day 7
[9] = dose 1.0 i.p. QD d7-10,14,15, day 12
[10] = dose 1.0 i.p. QD d7-10,14,15, day 17
[11] = dose 1.0 i.p. QD d7-10,14,15, day 22

C/C(=C\c1csc(C)n1)[C@@H]1C[C@@H]2O[C@]2(C)CCC[C@H](C)[C@H](O)[C@@H](C)C(=O)C(C)(C)[C@@H](O)CC(=O)O1 [Epothilone B, epothilone B]
Average Tumor Volume (T/C) (B16 Melanoma; 0.4 mg/kg QD × 6 from day 1, day 7): 1.07 | # Mice Died (B16 Melanoma; 0.8 mg/kg QD × 5 from day 1): 5/8 | Average Tumor Volume (T/C) (B16 Melanoma; 0.8 mg/kg QD × 5 from day 1, day 9): 0.46 | Therapeutic effect Rank Order (B16 Melanoma; B16 Melanoma, i.p.): dEpoB > Taxol ® >> EpoB | mice died of drug toxicity ([1]; Epo B dose 1.0 i.p., 7 mice, day 17): ^6.One mouse died of drug toxicity on day 17. | Average weight change [1, 4]: +0.1 | Average tumor volume (control = 1.00) [1, 5]: 0.32 | Average weight change [1, 5]: −0.7 | Average tumor volume (control = 1.00) [1, 6]: 0.40 | Average weight change [1, 6]: −1.0 | Average tumor volume (control = 1.00) [1, 7]: 0.33 | Average weight change [1, 7]: −0.2 | Average weight change [1, 8]: −0.2 | Average tumor volume (control = 1.00) [1, 9]: 0.41 | Average weight change [1, 9]: −1.3 | Average tumor volume (control = 1.00) [1, 10]: 0.27 | Average weight change [1, 10]: −2.1 | Average tumor volume (control = 1.00) [1, 11]: 0.31 | Average weight change [1, 11]: −0.5 | mice died of drug toxicity (Human CCRF-CEM Xenograft; Epo B dose 0.7 i.p., day 19 & 20): ^4.Two mice died of drug toxicity on day 19 & 20. | mice died of drug toxicity (Human CCRF-CEM Xenograft; Epo B dose 1.0 i.p., day 18, 19 and 21): ^5.Three mice died of drug toxicity on day 18, 19 and 21. | Average weight change (Human CCRF-CEM Xenograft; [4]): −0.1 | Average tumor volume (control = 1.00) (Human CCRF-CEM Xenograft; [5]): 0.53 | Average weight change (Human CCRF-CEM Xenograft; [5]): −0.7 | Average tumor volume (control = 1.00) (Human CCRF-CEM Xenograft; [6]): 0.48 | Average weight change (Human CCRF-CEM Xenograft; [6]): −1.4 | Average tumor volume (control = 1.00) (Human CCRF-CEM Xenograft; [7]): 0.46 | Average weight change (Human CCRF-CEM Xenograft; [7]): +0.3 | Average weight change (Human CCRF-CEM Xenograft; [8]): +0.1 | Average tumor volume (control = 1.00) (Human CCRF-CEM Xenograft; [9]): 0.46 | Average weight change (Human CCRF-CEM Xenograft; [9]): −1.5 | Average tumor volume (control = 1.00) (Human CCRF-CEM Xenograft; [10]): 0.35 | Average weight change (Human CCRF-CEM Xenograft; [10]): −2.4 | Average tumor volume (control = 1.00) (Human CCRF-CEM Xenograft; [11]): 0.43 | Average weight change (Human CCRF-CEM Xenograft; [11]): +0.1 | IC50 [2]: 0.35 nM | fold more potent than Epo A ([2]; CCRF-CEM cells): 6 fold | fold more potent than Taxol ([2]; CCRF-CEM cells): 10 fold | Rel. Value (potency relative to Epo B) ([2]; CCRF-CEM leukemic cells): 1 | IC50 ([2]; Table 1, XTT): 0.4 nM | IC50 (murine leukemic P388/0): 0.29 nM | IC50 [3]: 4 nM
